Experimental data reported in paper PMC11050599, “Novel Tetracyclic Azaphenothiazines with the Quinoline Ring as New Anticancer and Antibacterial Derivatives of Chlorpromazine” (International Journal of Molecular Sciences, 2024).
Converted amounts (≈) assume the structure as drawn.

Columns and labels:
HCT116 (colon cancer) = assay: MTT assay, HCT116 cells; format: cell-based, human
Protocol: (§1) The human cell lines, such as A549 (lung cancer), MDA-MB-231 (breast cancer), MiaPaca-2 (pancreatic cancer), PC3 (metastatic prostate cancer), HCT-116 (colon carcinoma), and HaCaT (immortalized keratinocytes), were sourced from the American Type Culture Collection (ATCC) in Rockville, USA. Culturing conditions varied as follows: HCT116 cells were cultured in MEM (ThermoSci, Waltham, MA, USA), A549, MDA-MB-231, MiaPaca, HaCaT cells in DMEM High Glucose and PC3 cells were cultured in RPMI (Biowest SAS, Nuaillé, France). The growth medium consisted of 10% fetal bovine serum (FBS, Sigma-Aldrich, St. Louis, MO, USA), 20 mM HEPES (Biowest, Nuaillé, France), and antibiotics (100 U/mL of penicillin and 100 μg/mL of streptomycin) from Gibco, Grand Island, NY, USA. […] These compounds were added to 96-well plates containing study cells (1 × 10^4 cells per well) and incubated for 72 h. […] Cell absorbance results were incorporated into the formula for calculating the relative MTT level (%), enabling the assessment of cell viability following exposure to the test compounds. The cell viability percentage represents the MTT reduction in cells treated with the test compounds compared to the control sample, where only the medium was added to the cells.

[1] = tested on: HaCaT (immortalized human keratinocytes); assay: MTT assay, HaCaT normal cells; format: cell-based; conditions: Homo sapiens, HaCaT, 72 h, read-out: IC50 HaCaT (Table 3)
In short: (§2)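 Cells seeded at 1 × 10^4 per well were exposed to compounds for 72 h; media: MEM for HCT116, DMEM High Glucose for MDA-MB-231 and HaCaT, RPMI for PC3, each with 10% FBS and 20 mM HEPES. Viability given as MTT reduction relative to medium-only control.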

HCT116 cells [2] = assay: Annexin V-FITC/PI apoptosis flow cytometry, HCT116; format: cell-based, human; conditions: representative dot plot, Figure 4C, IC50, 72 h
Protocol: (§3) To analyze the number of cells in early apoptosis, late apoptosis, or necrosis, A549, MiaPaca-2, and HCT-116 cell lines were cultured in 6-well plates with a seeding density of 1 × 10^5 cells per well. These cells were then treated with selected compounds (4, 5, and 8) at their respective IC50 concentrations and incubated for 72 h. Subsequently, a commercially available kit, the FITC: Annexin V Apoptosis Detection Kit I from BD Biosciences Pharmingen in San Jose, CA, USA, was utilized to assess apoptosis. After 72 h the cells were harvested, washed, and labeled with Annexin V-FITC and propidium iodide (PI) following the manufacturer’s protocol (Becton Dickinson), as previously described. The stained cells were analyzed by flow cytometry. The cells were identified as early apoptotic (Annexin V+/PI−) or late apoptotic/necrotic (Annexin V+/PI+).

A549 cells [3] = assay: Annexin V-FITC/PI apoptosis flow cytometry, A549; format: cell-based, human; conditions: representative dot plot, Figure 4A, IC50, 72 h
Protocol: as §3

[4] = tested on: MiaPaCa-2 (pancreas cancer); assay: MTT assay, MiaPaCa-2 cells; format: cell-based, human
Protocol: as §1

cancer cell lines = assay: MTT assay, summary over several cell lines; format: cell-based, human; conditions: Homo sapiens, read-out: IC50 range toward four cancerous cell lines
Protocol: as §1

[5] = tested on: S. epidermidis ATCC 12228; assay: MIC broth microdilution; format: cell-based; conditions: Staphylococcus epidermidis, ATCC12228, 19 h, read-out: MIC S. epidermidis ATCC 12228
In short: (§4)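 Two-fold serial broth microdilution in Mueller-Hinton II broth, final inoculum adjusted to […]. Compounds dissolved in DMSO, final solvent at most 1%.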

S. aureus ATCC 25923 = assay: MIC broth microdilution; format: cell-based; conditions: Staphylococcus aureus, ATCC25923, 19 h, read-out: MIC S. aureus ATCC 25923
In short: as §4

S. aureus ATCC 29213 = assay: MIC broth microdilution; format: cell-based; conditions: Staphylococcus aureus, ATCC29213, 19 h, read-out: MIC S. aureus ATCC 29213
In short: as §4

S. aureus ATCC 6538 = assay: MIC broth microdilution; format: cell-based; conditions: Staphylococcus aureus, ATCC6538, 19 h, read-out: MIC S. aureus ATCC 6538
In short: as §4

S. aureus NCTC 4163 = assay: MIC broth microdilution; format: cell-based; conditions: Staphylococcus aureus, NCTC4163, 19 h, read-out: MIC S. aureus NCTC 4163
In short: as §4

[6] = tested on: S. epidermidis ATCC 35984; assay: MIC broth microdilution; format: cell-based; conditions: Staphylococcus epidermidis, ATCC35984, 19 h, read-out: MIC S. epidermidis ATCC 35984
In short: as §4

E. coli ATCC 25922 = assay: MIC broth microdilution; format: cell-based
In short: as §4

P. aeruginosa ATCC 15442 = assay: MIC broth microdilution; format: cell-based; conditions: Pseudomonas aeruginosa, ATCC15442, 19 h, read-out: MIC P. aeruginosa ATCC 15442
In short: as §4

HCT116 cells [7] = assay: Cell cycle analysis by flow cytometry, HCT116; format: cell-based, human; conditions: IC50, 24 h, compared to the control
Protocol: (§5) In brief, cells were seeded at a density of 1 × 10^5 cells/well on a six-well plate and allowed to adhere for 24 h. […] Both population cells (the attached and detached) were collected and centrifuged at 400× g for 5 min at 4 °C. After centrifugation, the cells were washed twice with 0.9% NaCl and subsequently fixed in 500 μL of 70 % cold ethanol overnight.
(§6) Before analysis, the fixed cells underwent another centrifugation step at 850× g for 5 min at 4 °C and were washed with PBS. Following the washes, the cells were incubated with 50 μL of RNase (100 μg/mL) and 200 μL of propidium iodide (PI) (50 μg/mL) at 37 °C for 30 min in the dark. Finally, 100 μL of PBS was added to each sample. Flow cytometry (Becton Dickinson FACS Verse, Franklin Lakes, NJ, USA) was then used to analyze the cell cycle distribution, identifying cells in various stages including sub-G1, G0/G1, S, and G2/M phases. Each assay was performed in quadruplicate.

MiaPaCa-2 cells = assay: Annexin V-FITC/PI apoptosis flow cytometry, MiaPaCa-2; format: cell-based, human; conditions: representative dot plot, Figure 4B, IC50, 72 h
Protocol: as §3

A549 (lung cancer) = assay: MTT assay, A549 cells; format: cell-based, human; conditions: Homo sapiens, A549, 72 h, read-out: IC50 A549
In short: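 After a 72 h incubation of 1 × 10^4 cells per well with compound, absorbance from MTT reduction was converted to percent of the medium-only control.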

[8] = tested on: MDA-MB-231 (breast cancer); assay: MTT assay, MDA-MB-231 cells; format: cell-based, human
In short: as §2

PC3 (prostate cancer) = assay: MTT assay, PC3 cells; format: cell-based, human
Protocol: as §1

A549 cells [9] = assay: Cell cycle analysis by flow cytometry, A549; format: cell-based, human; conditions: compound at IC50, 24 h
Protocol: as §5, §6

[10] = SI = IC50 for normal cell line (HaCaT)/IC50 cancer cell line

With O=C(NCCCl)NCCCCN1c2cc(Cl)ccc2Sc2cc3ccccc3nc21 [Compound 21, 1-(4-(8-Chloroquino[3,2-b]benzo[1,4]thiazin-6-yl)butyl)-3-(2-chloroethyl)urea] the IC50 (HCT116 (colon cancer); Homo sapiens, HCT-116, 72 h, read-out: IC50 HCT116) was 11.3 ± 2.2 µM, the “SI HCT116” value (HCT116 (colon cancer); [10]) was 0.1 and the IC50 [1] was 1.1 ± 0.3 µM. The “HCT-116: Alive” value (HCT116 cells [2]) was 17.91%, the “HCT-116: Early Apoptotic” value (HCT116 cells [2]) was 1.71% and the “HCT-116: Necrotic” value (HCT116 cells [2]) was 5.16%. The “HCT-116: Necrotic/Late Apoptotic” value (HCT116 cells [2]) was 75.22%, the “A549: Alive” value (A549 cells [3]) was 3.27% and the “A549: Early Apoptotic” value (A549 cells [3]) was 1.31%. The “A549: Necrotic” value (A549 cells [3]) was 15.90%, the “A549: Necrotic/Late Apoptotic” value (A549 cells [3]) was 79.52% and the IC50 ([4]; Homo sapiens, MIA PaCa-2, 72 h, read-out: IC50 MiaPaCa-2) was 6.4 ± 2.4 µM. The “SI MiaPaCa-2” value [4, 10] was 0.2, the IC50 (cancer cell lines) was 6.4 to 11.3 µM and the MIC [5] was 2 µg/mL (≈ 4.33 µM). For the same compound, the MIC (S. aureus ATCC 25923) was 2 µg/mL (≈ 4.33 µM), the MIC (S. aureus ATCC 29213) was 2 µg/mL (≈ 4.33 µM) and the MIC (S. aureus ATCC 6538) was 2 µg/mL (≈ 4.33 µM). For the same compound, the MIC (S. aureus NCTC 4163) was 2 µg/mL (≈ 4.33 µM), the MIC [6] was 2 µg/mL (≈ 4.33 µM) and the “MIC E. coli ATCC 25922” value (E. coli ATCC 25922; 19 h, 35 °C) was 8 µg/mL (≈ 17.3 µM). For the same compound, the MIC (E. coli ATCC 25922; Escherichia coli, ATCC25922, 19 h, read-out: MIC E. coli ATCC 25922) was 8 µg/mL (≈ 17.3 µM), the MIC (P. aeruginosa ATCC 15442) was greater than 256 µg/mL and the “increase in the cell amount at the sub-G1 phase, HCT116” value (HCT116 cells [7]) was 12 fold. For the same compound, the “increase in the number of cells in the G2/M phase, HCT116” value (HCT116 cells [7]) was “approximately 1.3 fold”, the “increase in the number of cells in the S phase, HCT116” value (HCT116 cells [7]) was “approximately 2 fold” and the “MiaPaca: Alive” value (MiaPaCa-2 cells) was 8.66%. For the same compound, the “MiaPaca: Early Apoptotic” value (MiaPaCa-2 cells) was 2.45%, the “MiaPaca: Necrotic” value (MiaPaCa-2 cells) was 37.47% and the “MiaPaca: Necrotic/Late Apoptotic” value (MiaPaCa-2 cells) was 51.42%. For the same compound, the IC50 (A549 (lung cancer)) was 6.98 ± 1.2 µM, the IC50 ([8]; Homo sapiens, MDA-MB-231, 72 h, read-out: IC50 MDA) was 7.4 ± 1.2 µM and the “SI MDA” value [8, 10] was 0.15. The IC50 (PC3 (prostate cancer); Homo sapiens, PC-3, 72 h, read-out: IC50 PC3) was 76.6 ± 9.8 µM, the “SI PC3” value (PC3 (prostate cancer); [10]) was 0.1 and the “percentage of Sub G1 phase A549 cells” value (A549 cells [9]) was 27.6%.
